Literature values as cited in US5493006A, “Cyclic CRF analogs” (The Salk Institute for Biological Studies, priority 1993, dated 1996).
Entries after “also recorded” stand apart in the source; their conditions may differ. Ends that are not written are not given here.

Experiments:
[1] = tested on: secretion of ACTH and β-END-LI; details: in vitro and in vivo; background statement
[2] = injected peripherally; background statement

Substance | stimulation of ACTH and β-endorphin-like activities (β-END-Li) [1] | lowering of blood pressure [2]
rCRF: rat CRF, a homologous, amidated hentetracontapeptide; same formula as human CRF (SEEPPISLDLTFHLLREVLEMARAEQLAQQAHSNRKLMEII-NH2; UniProt P01143 145-185, looked up) | stimulate ACTH and β-endorphin-like activities (β-END-Li) in vitro and in vivo | substantially lower blood pressure
oCRF: ovine corticotropin releasing factor, a 41-residue amidated peptide (SQEPPISLDLTFHLLREVLEMTKADQLAQQAHSNRKLLDIA-NH2; UniProt P01142 148-188, looked up) | stimulates the secretion of ACTH and β-endorphin; also recorded: stimulate ACTH and β-endorphin-like activities (β-END-Li) in vitro and in vivo | lowers blood pressure; also recorded: substantially lower blood pressure
